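In this assay, cells in 96-well plates receive the compound at five concentrations for 48 hours. Endpoints are linearly interpolated between the surrounding concentrations. TGI: total growth inhibition.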
How the values were obtained:
Test in all cases: NCI-60 cell line screen, 48 h
[1] = tested on: SF-295 CNS
[2] = tested on: SN12C renal
[3] = tested on: HCT-15 colon
[4] = tested on: U251 CNS
[5] = tested on: DLD-1 colon
[6] = tested on: SW-620 colon
[7] = tested on: UACC-257 melanoma
[8] = tested on: NCI-H226 lung
[9] = tested on: OVCAR-8 ovarian
[10] = tested on: SNB-19 CNS
[11] = tested on: HCC-2998 colon
[12] = tested on: M14 melanoma
[13] = tested on: OVCAR-4 ovarian
[14] = tested on: DMS 273 small cell lung
[15] = tested on: HCT-116 colon
[16] = tested on: EKVX NSCLC
[17] = tested on: COLO 205 colon
[18] = tested on: K-562 leukemia
[19] = tested on: NCI-H460 lung
[20] = tested on: SK-MEL-2 melanoma
[21] = tested on: ACHN renal
[22] = tested on: A498 renal
[23] = tested on: KM20L2 colon
[24] = tested on: MALME-3M melanoma
[25] = tested on: SF-268 CNS
[26] = tested on: RXF 393 renal
[27] = tested on: 786-0 renal
[28] = tested on: SK-OV-3 ovarian
[29] = tested on: MOLT-4 leukemia
[30] = tested on: UACC-62 melanoma
[31] = tested on: KM12 colon
[32] = tested on: LOX IMVI melanoma
[33] = tested on: HT29 colon
[34] = tested on: HL-60(TB) leukemia
[35] = tested on: M19-MEL melanoma
[36] = tested on: SF-539 CNS
[37] = tested on: CAKI-1 renal
[38] = tested on: HOP-18 NSCLC
[39] = tested on: TK-10 renal
[40] = tested on: SNB-75 CNS
[41] = tested on: HOP-62 NSCLC
[42] = tested on: RPMI-8226 leukemia
[43] = tested on: UO-31 renal
[44] = tested on: OVCAR-5 ovarian
[45] = tested on: A549 NSCLC
[46] = tested on: SK-MEL-28 melanoma
[47] = tested on: OVCAR-3 ovarian
[48] = tested on: HOP-92 NSCLC
[49] = tested on: SK-MEL-5 melanoma
[50] = tested on: XF 498 CNS
[51] = tested on: IGROV1 ovarian
[52] = tested on: LXFL 529 NSCLC
[53] = tested on: NCI-H23 lung
[54] = tested on: CCRF-CEM leukemia
[55] = tested on: SNB-78 CNS
[56] = tested on: NCI-H522 lung
[57] = tested on: SR leukemia

COC1O[C@@H]2COC(C)(C)O[C@@H]2C(=O)N1Nc1ccc([N+](=O)[O-])cc1 (some centres not stated)
TGI [1]: > 100 µM
TGI [2]: > 100 µM
TGI [3]: > 100 µM
TGI [4]: > 100 µM
TGI [5]: > 100 µM
TGI [6]: 72.9 µM
TGI [7]: > 100 µM
TGI [8]: > 100 µM
TGI [9]: > 100 µM
TGI [10]: > 100 µM
TGI [11]: > 100 µM
TGI [12]: > 100 µM
TGI [13]: > 100 µM
TGI [14]: > 100 µM
TGI [15]: > 100 µM
TGI [16]: > 100 µM
TGI [17]: > 100 µM
TGI [18]: > 100 µM
TGI [19]: > 100 µM
TGI [20]: > 100 µM
TGI [21]: > 100 µM
TGI [22]: > 100 µM
TGI [23]: > 100 µM
TGI [24]: > 100 µM
TGI [25]: > 100 µM
TGI [26]: > 100 µM
TGI [27]: > 100 µM
TGI [28]: > 100 µM
TGI [29]: > 100 µM
TGI [30]: > 100 µM
TGI [31]: > 100 µM
TGI [32]: 95.5 µM
TGI [33]: > 100 µM
TGI [34]: > 100 µM
TGI [35]: > 100 µM
TGI [36]: > 100 µM
TGI [37]: > 100 µM
TGI [38]: > 100 µM
TGI [39]: > 100 µM
TGI [40]: > 100 µM
TGI [41]: > 100 µM
TGI [42]: 45.4 µM
TGI [43]: > 100 µM
TGI [44]: > 100 µM
TGI [45]: > 100 µM
TGI [46]: > 100 µM
TGI [47]: > 100 µM
TGI [48]: > 100 µM
TGI [49]: > 100 µM
TGI [50]: > 100 µM
TGI [51]: > 100 µM
TGI [52]: > 100 µM
TGI [53]: > 100 µM

CC1=CC2C(=O)N(c3ccccc3)C(=O)C2CC1n1[nH]c(=O)n(Cc2ccccc2)c1=O (configuration not stated)
TGI [1]: > 100 µM
TGI [2]: > 100 µM
TGI [3]: > 100 µM
TGI [4]: > 100 µM
TGI [5]: > 100 µM
TGI [6]: > 100 µM
TGI [54]: > 100 µM
TGI [55]: > 100 µM
TGI [7]: > 100 µM
TGI [8]: > 100 µM
TGI [9]: > 100 µM
TGI [10]: > 100 µM
TGI [11]: > 100 µM
TGI [12]: > 100 µM
TGI [13]: > 100 µM
TGI [14]: > 100 µM
TGI [15]: > 100 µM
TGI [16]: > 100 µM
TGI [17]: > 100 µM
TGI [18]: > 100 µM
TGI [19]: > 100 µM
TGI [20]: > 100 µM
TGI [21]: > 100 µM
TGI [22]: > 100 µM
TGI [23]: > 100 µM
TGI [24]: > 100 µM
TGI [25]: > 100 µM
TGI [26]: > 100 µM
TGI [27]: > 100 µM
TGI [28]: > 100 µM
TGI [30]: > 100 µM
TGI [31]: > 100 µM
TGI [32]: > 100 µM
TGI [33]: > 100 µM
TGI [34]: > 100 µM
TGI [56]: > 100 µM
TGI [57]: > 100 µM
TGI [36]: > 100 µM
TGI [37]: > 100 µM
TGI [38]: > 100 µM
TGI [39]: > 100 µM
TGI [40]: > 100 µM
TGI [41]: > 100 µM
TGI [43]: > 100 µM
TGI [44]: > 100 µM
TGI [45]: > 100 µM
TGI [46]: > 100 µM
TGI [47]: > 100 µM
TGI [48]: > 100 µM
TGI [49]: > 100 µM
TGI [50]: > 100 µM
TGI [51]: > 100 µM
TGI [52]: > 100 µM
TGI [53]: > 100 µM
